Laboratory results: article PMC2794939 (Biochemistry, 2009)

What was measured:
A/M2 wt channel [1] = target: T1, A/M2 wt channel (Influenza A virus, UniProt P0DOF5); settings: cited from earlier work
[2] = test system: wt influenza virus (A/Udorn/72); assay type: cell-based
[3] = target: T2, transmembrane domain of wt A/M2 protein (M2TM, residues 22–46) (Influenza A virus, UniProt P0DOF5); assay type: binding; settings: pH 7.4
T2 sequence (P0DOF5 22-46 limits assumed): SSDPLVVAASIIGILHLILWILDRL

A/M2 wt channel [4] = target: T1, A/M2 wt channel; assay type: cell-based

T1 sequence (P0DOF5 whole entry): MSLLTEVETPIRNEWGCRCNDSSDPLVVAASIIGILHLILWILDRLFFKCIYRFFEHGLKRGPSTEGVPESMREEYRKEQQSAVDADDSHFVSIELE

SMILES	dissociation rate constant (κoff) (A/M2 wt channel [1])	second-order rate constant (κon) for association and inhibition (A/M2 wt channel [1])	concentrations at which plaque formation was inhibited [2]	Kd [3]	% remaining activity after application of 100 μM compound (A/M2 wt channel [4])	voltage dependence of inhibition (A/M2 wt channel [4])	IC50 (A/M2 wt channel [4]; pH 5.5)	reversibility of inhibition / washout rate (A/M2 wt channel [4]; pH 8.5)	activity (A/M2 wt channel [4]; read-out: AM2 channel activity after 100μM compound inhibition)	reversal of inhibition in the time frame of 5 min (A/M2 wt channel [4]; pH 8.5)
C1CCC2(CC1)CCN(C1=NCCN1)CC2 [BL-1743, 2-[3-azaspiro([5],[5])undecanol]-2-imidazoline]	10^−3 s^−1	720 M⁻¹ s⁻¹	50 to 100 µM	194 µM	25.3±1.3%	voltage-independence	45.3 ± 3.92 µM	essentially fully reversible	25%	
NC12CC3CC(CC(C3)C1)C2 [Amantadine, amantadine]	10^−4 s^−1					voltage-independence				about 10%
NC1CCC2(CCCCC2)CC1 [Compound 8, spiro[5.5]undecan-3-amine]						voltage-independence		not significantly different from that of amantadine		
